According to patent US20250082647A1, “SPECIFIC DOSAGE OF PHENOTHIAZINE COMPOUNDS FOR USE IN TREATMENT OR PREVENTION OF ALZHEIMER'S DEMENTIA” (IMMUNGENETICS AG, priority 2022, published 2025):

System: plasma Abeta1-40
Test: Plasma Abeta1-40 in human subjects after oral thiethylperazine (INNO-BIA plasma Abeta forms immunoassay)
Format: in vivo
Conditions: for average increase in plasma Abeta1-40: day 1; for subjects with an increase of plasma Abeta1-40: oral
Experimental: Samples of 10 ml venous blood were collected in standardized test tubes containing ethylene diamine tetraacetic acid (EDTA) and gently shaken 1-2 times. As soon as possible (within max. 30 min.) samples were centrifuged at 1600 g, room temperature for 10 min. Plasma was aliquoted into 6 portions of 0.5 ml. All aliquots were frozen into a deep freezer (-80° C.) within 10 min after the centrifugation and stored until use. Abeta measurements were performed using the bead-based INNO-BIA plasma Abeta forms immunoassay (Innogenetics/Fujirebio Europe, Gent, Belgium) according to the manufacturer's protocol. Plasma samples and all other kit reagents were prepared according to the manufacturer's protocol. In brief, plasma samples were thawed at room temperature, centrifuged at 4000 g for 10 min to remove any possible debris, vortexed and then diluted 3-fold using Plasma Diluent. After transferring into the filter plate diluted samples, controls and standards were washed and incubated shaking overnight at 4° C. after the addition of the first conjugate. On the next day, all wells were washed 3 times and incubated with detection conjugate for 1 h at room temperature. After another 3 times washing, reading solution was added to all wells and the measurements were performed on a Luminex IS 100 (Luminex Corporation, Austin, TX, USA) platform after 2 minutes of shaking. Luminex instrument settings used were: gate-7500 to 15000, sample volume-50 μL and counts per region-100 beads. Standard curve calculation was performed using Stata 14.2 (StataCorp, College Station, TX, USA) employing a four-parametric logistic fit (nl log4 command). All standards, controls, and the patients' samples were analyzed in duplicates; all samples from a given individual were assayed in one analytical run. The duplicate-averaged concentrations (in pg/ml) of the two biomarkers (Abeta1-40 and Abeta1-42) were calculated. In all eight standard-curves fitting models (4 runs×2 biomarkers), adjusted R-squared statistics were higher than 0.995, which speaks for excellent curve fitting quality. Herein below, thiethylperazine was used as thiethylperazine maleate, wherein the weight-based amounts [in mg] are indicated with respect to thiethylperazine; the weight-based amounts of thiethylperazine maleate [in mg] are indicated in parenthesis. […] On day 1 (t=0 h), blood samples were taken from all subjects. […] Plasma Abeta was considered an indicator of brain Abeta content and Abeta export with higher plasma Abeta concentrations indicating higher Abeta clearance from the brain (Ferrero, Williams et al. 2016, […], Chiao et al. 2016).

## CCSc1ccc2c(c1)N(CCCN1CCN(C)CC1)c1ccccc1S2 [thiethylperazine, 2-(ethylsulfanyl)-10-[3-(4-methylpiperazin-1-yl)propyl]-10H-phenothiazine]
6.5 mg thiethylperazine
  mean plasma Abeta1-40 concentration difference between responders and non-responders: 33.04 pg/mL
  average increase in plasma Abeta1-40: 7.8%
13 mg thiethylperazine
  mean plasma Abeta1-40 concentration difference between responders and non-responders: 28.07 pg/mL
  average increase in plasma Abeta1-40: 7.8%
26 mg thiethylperazine (41.12 mg maleate) per day over three consecutive days, steady state, 15 subjects (comparative)
  subjects with an increase of plasma Abeta1-40: 40%
26 mg thiethylperazine per day over three consecutive days, steady state
  average change of plasma Abeta1-40: 6.5%
26 mg thiethylperazine, steady state
  mean plasma Abeta1-40 concentration difference between responders and non-responders: 16.53 pg/mL
After second administration on day 1, dose of 13 mg thiethylperazine (20.56 mg maleate), 15 subjects
  subjects with an increase of plasma Abeta1-40: 87%
Initial dose of 6.5 mg thiethylperazine (10.28 mg maleate), day 1, blood four hours after administration, 15 subjects
  subjects with an increase of plasma Abeta1-40: 53%
Lower dose 2-20 mg (6.5 mg and 13 mg) versus 26 mg
  average increase in plasma Abeta1-40 higher compared to higher dose: ≥ 20%
